Reference: US12012414B1, “Imidazo[1,5-a]pyrido[4,3-e]pyrimidines as CK2 inhibitors” (KING FAISAL UNIVERSITY, priority 2024, dated 2024)

Legend:
recombinant human CK2 = target: T1, recombinant human CK2 (Homo sapiens, UniProt P68400); test: CK2 Kinase Assay (33P-ATP, substrate peptide RRRDDDSDDD); assay type: biochemical; conditions: recombinant human CK2 holoenzyme, final ATP concentration 15 μM, 10 min at 30° C.; read-out: protein kinase CK2 IC50
T1 construct: purchased Millipore
Description: CK2 Kinase Assay was conducted using the protocol as described in Pierre F. et al; J. Med. Chem. 2011, 54, 635-654. The tested compounds in aqueous solution were added at a volume of 10 μL to a reaction mixture comprising 10 μL of assay dilution buffer (ADB; 20 mM MOPS, pH 7.2, 25 mM β-glycerol phosphate, 5 mM EGTA, 1 mM sodium orthovanadate, and 1 mM dithiothreitol), 10 μL of substrate peptide (RRRDDDSDDD, dissolved in ADB at a concentration of 1 mM), 10 μL of recombinant human CK2 (RROP-holoenzyme, 25 ng dissolved in ADB; Millipore). Reactions were initiated by the addition of 10 μL of ATP solution (90% 75 mMMgCl2, 75 μM ATP (final ATP concentration: 15 μM) dissolved in ADB; 10% [γ-33P] ATP (stock 1 mCi/100 μL; 3000 Ci/mmol (Perkin-Elmer) and maintained for 10 min at 30° C. The reactions were quenched with 100 μL of 0.75% phosphoric acid and then transferred to and filtered through a phosphor cellulose filter plate (Millipore). After washing each well five times with 0.75% phosphoric acid, the plate was dried under vacuum for 5 min and, following the addition of 15 μL of scintillation fluid to each well, the residual radioactivity was measured using a Wallac […] counter. The IC50 values were derived from eight concentrations of test inhibitors.

MDA-MB-231 (breast) = test: In vitro cytotoxic activity (MTT) assay, MDA-MB-231; assay type: cell-based; conditions: Homo sapiens; MDA-MB-231 cells, exposed for 96 hours, 50% inhibition of cell proliferation; read-out: Cytotoxicity activity IC50, MDA-MB-231 (breast)
Description: (§1) Compounds 1-16 were screened for their in vitro cytotoxic activity utilizing a 3-(4,5-dimethyl-thiazol-2-yl)-2,5-diphenyltetrazolium bromide (MTT) assay against selected cancer human cell lines consisting of PC3 (prostate), HCT116 (colon), A375 (melanoma), H1299 (lung), MIAPaCa-2 (pancreas), HL60 (leukemia), MCF7 (breast), MDA-MB-231 (breast) (T. Mosmann, J. Immunol. Meth., 1983, 65, 55-63). The cells were cultured at 37° C. in RMPI1640 medium supplemented with 10% fetal bovine serum, 50 IU/mL penicillin, and 50 μg/mL streptomycin in a 5% CO2 incubator. All cells were sub-cultured 3 times/week by trypsinisation. Viable cells were seeded and allowed to adhere for 12 hours before a test drug was added in 96-well plates at an initial density of 1.0×10^5 cells/mL. Tumor cell lines were separately exposed to various concentrations of the tested compounds followed by incubation at a temperature of 37° C. during 96 hours inside a medium of fresh RMPI 1640. Cells were subsequently incubated at 37° C. using MTT at 0.5 mg/mL during 4 hours. After removal of supernatant, formazan crystals were dissolved in isopropanol and the optical density was measured at 570 nm. CX-4945 was used as a positive control.

H1299 (lung) = test: In vitro cytotoxic activity (MTT) assay, H1299; assay type: cell-based; conditions: Homo sapiens, NCI-H1299; H1299 cells, exposed for 96 hours, 50% inhibition of cell proliferation; read-out: Cytotoxicity activity IC50, H1299 (lung)
Description: as §1

HL60 (leukemia) = test: In vitro cytotoxic activity (MTT) assay, HL60; assay type: cell-based; conditions: Homo sapiens, HL-60; HL60 cells, exposed for 96 hours, 50% inhibition of cell proliferation; read-out: Cytotoxicity activity IC50, HL60 (leukemia)
Description: as §1

PC3 (prostate) = test: In vitro cytotoxic activity (MTT) assay, PC3; assay type: cell-based; conditions: Homo sapiens, PC-3; PC3 cells, exposed for 96 hours, 50% inhibition of cell proliferation; read-out: Cytotoxicity activity IC50, PC3 (prostate)
Description: as §1

A375 (melanoma) = test: In vitro cytotoxic activity (MTT) assay, A375; assay type: cell-based; conditions: Homo sapiens, A-375; A375 cells, exposed for 96 hours, 50% inhibition of cell proliferation; read-out: Cytotoxicity activity IC50, A375 (melanoma)
Description: as §1

MCF7 (breast) = test: In vitro cytotoxic activity (MTT) assay, MCF7; assay type: cell-based; conditions: Homo sapiens; MCF7 cells, exposed for 96 hours, 50% inhibition of cell proliferation; read-out: Cytotoxicity activity IC50, MCF7 (breast)
Description: as §1

HCT116 (colon) = test: In vitro cytotoxic activity (MTT) assay, HCT116; assay type: cell-based; conditions: Homo sapiens, HCT-116; HCT116 cells, exposed for 96 hours, 50% inhibition of cell proliferation; read-out: Cytotoxicity activity IC50, HCT116 (colon)
Description: as §1

MIAPaCa-2 (pancreas) = test: In vitro cytotoxic activity (MTT) assay, MIAPaCa-2; assay type: cell-based; conditions: Homo sapiens, MIA PaCa-2; MIAPaCa-2 cells, exposed for 96 hours, 50% inhibition of cell proliferation; read-out: Cytotoxicity activity IC50, MIAPaCa-2 (pancreas)
Description: as §1

T1 sequence (P68400 whole entry): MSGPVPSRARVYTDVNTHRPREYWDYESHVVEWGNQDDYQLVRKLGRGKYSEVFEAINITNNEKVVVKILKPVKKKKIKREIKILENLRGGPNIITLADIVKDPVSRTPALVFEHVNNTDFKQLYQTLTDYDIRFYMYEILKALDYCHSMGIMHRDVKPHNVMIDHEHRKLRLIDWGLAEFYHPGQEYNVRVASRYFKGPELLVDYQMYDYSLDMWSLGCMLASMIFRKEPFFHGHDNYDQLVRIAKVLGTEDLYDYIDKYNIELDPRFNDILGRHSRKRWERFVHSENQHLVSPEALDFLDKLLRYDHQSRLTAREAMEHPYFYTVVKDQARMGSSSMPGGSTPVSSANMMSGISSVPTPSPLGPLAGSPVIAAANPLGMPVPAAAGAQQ
T1 sequence (P67870 whole entry partner): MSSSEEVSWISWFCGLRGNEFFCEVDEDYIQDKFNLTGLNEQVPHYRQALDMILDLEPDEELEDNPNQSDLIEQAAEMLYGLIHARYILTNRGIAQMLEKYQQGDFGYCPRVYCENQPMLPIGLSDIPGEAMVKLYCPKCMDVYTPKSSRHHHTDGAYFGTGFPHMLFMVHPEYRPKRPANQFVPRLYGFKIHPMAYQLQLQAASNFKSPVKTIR

IC50 (recombinant human CK2): 0.074 µM
SMILES: O=C(O)c1ncn2c1nc(Nc1cccc(Cl)c1)c1ccncc12 [Compound 1, 5-((3-chlorophenyl)amino)imidazo[1,5-a]pyrido[4,3-e]pyrimidine-3-carboxylic acid]
IC50 (MDA-MB-231 (breast)): 4.5 µM | IC50 (H1299 (lung)): 1.9 µM | IC50 (HL60 (leukemia)): 3.6 µM | IC50 (PC3 (prostate)): 1.7 µM | IC50 (A375 (melanoma)): 3.8 µM | IC50 (MCF7 (breast)): 5.4 µM | IC50 (HCT116 (colon)): 2 µM | IC50 (MIAPaCa-2 (pancreas)): 1.3 µM
